Inconclusive results and toxic doses are left out. Cut-off read from the data, not from the text of the source: active = T/C of 150% or more; inactive = T/C below 125%.
Tested on: L1210 leukemia ip in BDF1 mice, survival T/C
Assay: NCI In Vivo Anticancer Drug Screen. Data for tumor model L1210 Leukemia (intraperitoneal) in B6D2F1 (BDF1) mice
Details: endpoint: mean survival time, higher = longer survival
Outline: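 Antitumor effect is assessed in tumor-bearing animals. Survival in the compound arm is compared with a vehicle-dosed control arm and expressed as their quotient.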

[1] = dose: 100.0 mg/kg/injection, schedule: Q04DX003 (ip), vehicle: saline with Tween-80
[2] = dose: 100.0 mg/kg/injection, schedule: Q01DX009 (ip), vehicle: Klucel (hydroxypropylcellulose) (HPC)
[3] = dose: 100.0 mg/kg/injection, schedule: Q04DX003 (ip), vehicle: Klucel (hydroxypropylcellulose) (HPC)
[4] = dose: 200.0 mg/kg/injection, schedule: Q01DX009 (ip), vehicle: Klucel (hydroxypropylcellulose) (HPC)
[5] = dose: 200.0 mg/kg/injection, schedule: Q04DX003 (ip), vehicle: Klucel (hydroxypropylcellulose) (HPC)
[6] = dose: 400.0 mg/kg/injection, schedule: Q04DX003 (ip), vehicle: Klucel (hydroxypropylcellulose) (HPC)
[7] = dose: 100.0 mg/kg/injection, schedule: Q04DX002 (ip), vehicle: Klucel (hydroxypropylcellulose) (HPC)
[8] = dose: 200.0 mg/kg/injection, schedule: Q04DX002 (ip), vehicle: Klucel (hydroxypropylcellulose) (HPC)
[9] = dose: 400.0 mg/kg/injection, schedule: Q04DX002 (ip), vehicle: Klucel (hydroxypropylcellulose) (HPC)
[10] = dose: 100.0 mg/kg/injection, schedule: Q01DX001 (ip), vehicle: carboxymethylcellulose (CMC)
[11] = dose: 200.0 mg/kg/injection, schedule: Q01DX001 (ip), vehicle: carboxymethylcellulose (CMC)
[12] = dose: 400.0 mg/kg/injection, schedule: Q01DX001 (ip), vehicle: carboxymethylcellulose (CMC)

Measured: T/C

Brc1ccccc1N=Nc1ccccc1Br
inactive: [1] 92 % of control | dose: 200.0 mg/kg/injection, schedule: Q04DX003 (ip), vehicle: saline with Tween-80 91 % of control | dose: 400.0 mg/kg/injection, schedule: Q04DX003 (ip), vehicle: saline with Tween-80 107 % of control

COc1cc2cc[n+](C)c(Cc3ccccc3)c2cc1OC
inactive: dose: 25.0 mg/kg/injection, schedule: Q01DX009 (ip), vehicle: saline with Tween-80 111 % of control | dose: 25.0 mg/kg/injection, schedule: Q04DX003 (ip), vehicle: saline with Tween-80 105 % of control | dose: 50.0 mg/kg/injection, schedule: Q01DX009 (ip), vehicle: saline with Tween-80 107 % of control | dose: 50.0 mg/kg/injection, schedule: Q04DX003 (ip), vehicle: saline with Tween-80 103 % of control | [1] 96 % of control

CCC(C)C(C=NCC(CCN(CC)CC)(c1cccc2ccccc12)C(C)CC)(CCN(CC)CC)c1cccc2ccccc12 (stereo not drawn)
inactive: dose: 100.0 mg/kg/injection, schedule: Q04DX002 (ip), vehicle: saline with Tween-80 94 % of control | dose: 200.0 mg/kg/injection, schedule: Q04DX002 (ip), vehicle: saline with Tween-80 97 % of control | dose: 400.0 mg/kg/injection, schedule: Q04DX002 (ip), vehicle: saline with Tween-80 87 % of control

CO[C@@H](C=O)O[C@@H](C=O)CO
active: dose: 280.0 mg/kg/injection, schedule: Q01DX009 (ip), vehicle: water 153 % of control | dose: 280.0 mg/kg/injection, schedule: Q01DX Z (ip), vehicle: water 160 % of control
inactive: dose: 35.0 mg/kg/injection, schedule: Q01DX009 (ip), vehicle: water 115 % of control | dose: 35.0 mg/kg/injection, schedule: Q01DX Z (ip), vehicle: water 115 % of control | dose: 70.0 mg/kg/injection, schedule: Q01DX009 (ip), vehicle: water 123 % of control | dose: 70.0 mg/kg/injection, schedule: Q01DX Z (ip), vehicle: water 122 % of control

O=[N+]([O-])c1ccc2c(c1)C(Br)c1ccccc1-2 (stereo not drawn)
inactive: [2] 89 % of control | [3] 95 % of control | [4] 94 % of control | [5] 92 % of control | [6] 94 % of control

O=C(O)c1c(Cl)c(Cl)c(Cl)c(C(=O)O)c1Cl
inactive: dose: 50.0 mg/kg/injection, schedule: Q01DX009 (ip), vehicle: Klucel (hydroxypropylcellulose) (HPC) 98 % of control | [2] 97 % of control | [3] 93 % of control | [4] 98 % of control | [5] 91 % of control

Cc1nccn1-c1ccc(Cl)cc1N=Cc1ccc(N(CCCl)CCCl)cc1Cl
inactive: [7] 95 % of control | [8] 95 % of control | [9] 106 % of control

CCCCC(Cl)(CCCC)C(C)Sc1ccc([N+](=O)[O-])cc1 (stereo not drawn)
inactive: [10] 103 % of control | [11] 94 % of control | [12] 100 % of control

COc1ccccc1/C=C\C=O
inactive: [10] 103 % of control | [11] 100 % of control | [12] 97 % of control

Nc1ccc(OCc2ccc(C(=O)Nc3cccc(S(=O)(=O)F)c3)cc2)c(Cl)c1
inactive: [3] 100 % of control | [5] 108 % of control | [6] 96 % of control

COc1cccc(CBr)c1-c1c(CBr)cccc1OC
inactive: [7] 94 % of control | [8] 110 % of control | [9] 94 % of control

CC1OC(O[C@H]2C[C@](O)(C(C)O)Cc3c(O)c4c(c(O)c32)C(=O)c2c(O)cccc2C4=O)CC(NC=O)C1O (stereo partly drawn)
inactive: dose: 0.05 mg/kg/injection, schedule: Q01DX009 (ip), vehicle: saline 116 % of control | dose: 0.1 mg/kg/injection, schedule: Q01DX001 (ip), vehicle: saline 105 % of control | dose: 0.1 mg/kg/injection, schedule: Q03DX003 (ip), vehicle: saline 112 % of control | dose: 0.2 mg/kg/injection, schedule: Q01DX001 (ip), vehicle: saline 116 % of control | dose: 0.2 mg/kg/injection, schedule: Q03DX003 (ip), vehicle: saline 119 % of control | dose: 0.8 mg/kg/injection, schedule: Q01DX009 (ip), vehicle: saline 119 % of control
